The results in this text go back to ChEMBL document CHEMBL1129242, “(2E)-5-[3-[(phenylsulfonyl)amino]phenyl]-pent-2-en-4-ynohydroxamic acid and its derivatives as novel and potent inhibitors of ras transformation” (1996).

The MIC is the lowest concentration that inhibits growth of the organism.

Each structure is given as a SMILES string. ≈ marks a conversion by molar mass, not a printed value.

The subject of the first assay is NIH3T3. The experiment in a line: Minimum inhibitory concentration for the inhibition of transformation in ras- transformed cells(ras/ NIH3T3). The class given is functional. The conditions noted are these: Mus musculus.
Regarding `O=C(CCCC/C=C/c1ccccc1NS(=O)(=O)c1ccccc1)NO`, the MIC worked out at 4.3 µM (≈ 1.61 µg/mL).

Regarding `Cc1ccc(S(=O)(=O)Nc2cccc(C#C/C=C/C(=O)NO)c2)cc1`, it took 0.16 µM (≈ 0.057 µg/mL) to inhibit growth (MIC).

In turn, `O=C(/C=C/C#Cc1cccc(NS(=O)(=O)c2ccc(Br)cc2)c1)NO` registered an MIC of 0.16 µM (≈ 0.0674 µg/mL).

`O=C(/C=C/C=C/c1cc2ccccc2cc1NS(=O)(=O)c1ccccc1)NO`: 0.32 µM (≈ 0.126 µg/mL) was the least that counted as inhibitory (MIC).

`COc1ccc(S(=O)(=O)Nc2cccc(C#C/C=C/C(=O)NO)c2)cc1` gave a minimal inhibitory concentration (MIC) of 0.08 µM (≈ 0.0298 µg/mL).

Compound `O=C(/C=C/C=C/c1ccc(NS(=O)(=O)c2ccccc2)cc1)NO` showed an MIC of 1.6 µM (≈ 0.551 µg/mL).

As for `O=C(/C=C/C=C/c1ccccc1NS(=O)(=O)c1ccccc1)NO`, the MIC is 1.6 µM (≈ 0.551 µg/mL).

The compound `O=C(/C=C/C=C/c1cc2ccccc2n1S(=O)(=O)c1ccccc1)NO` returned an MIC of 0.4 µM (≈ 0.147 µg/mL).

`CN(c1ccccc1/C=C/C=C/C(=O)NO)S(=O)(=O)c1ccccc1` registered an MIC of 0.8 µM (≈ 0.287 µg/mL).

On to `O=C(/C=C/C#Cc1cccc(NS(=O)(=O)c2ccc([N+](=O)[O-])cc2)c1)NO`, for which the MIC worked out at 0.64 µM (≈ 0.248 µg/mL).

Take `O=C(/C=C/C#Cc1cccc(NS(=O)(=O)c2ccc(F)cc2)c1)NO`: the MIC turned out to be 0.08 µM (≈ 0.0288 µg/mL).

In the case of `CN(c1cccc(/C=C/C=C/C(=O)NO)c1)S(=O)(=O)c1ccccc1`, the MIC came to 0.6 µM (≈ 0.215 µg/mL).

The compound `O=C(CCCC/C=C\c1ccccc1NS(=O)(=O)c1ccccc1)NO` showed a minimum inhibitory concentration (MIC) of 17 µM (≈ 6.37 µg/mL).

For `O=C(/C=C/C=C/c1cccc(NS(=O)(=O)c2ccccc2)c1)NO`, 0.3 µM (≈ 0.103 µg/mL) was the least that counted as inhibitory (MIC).

As to `O=C(/C=C/C#Cc1cccc(NS(=O)(=O)c2ccc3ccccc3c2)c1)NO`, 0.08 µM (≈ 0.0314 µg/mL) was the least that counted as inhibitory (MIC).

For a further assay, the system named is NIH3T3. Put plainly: Minimum inhibitory concentration for the inhibition of transformation in ras- transformed cells(ras/ NIH3T3); Not effective at the highest concentration tested (100 uM). Type of assay: functional, cell-based. The note with it: Mus musculus.
Consider `O=C(/C=C/C#CC#Cc1cccc(NS(=O)(=O)c2ccccc2)c1)NO`, for which the MIC result was “Not effective at the highest concentration tested (100 uM)”.
